Test results: patent US11021457B2, “Class of isoindolone-imide ring-1,3-dione-2-ene compounds, composition and use thereof” (WIGEN BIOMEDICINE TECHNOLOGY (SHANGHAI) CO., LTD., priority 2017, dated 2021)

Key:
Format in all cases: cell-based
Conditions in all cases: compound concentration 50 μM, 72 hours
MDA-MB-453 = test: Inhibition of tumor cell proliferation, CellTiter-Glo, MDA-MB-453
How it was run: (§1)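 Cells seeded at 2000-10000 per well, treated immediately (suspension) or after adherence (adherent) and cultured at 37° C, 5% CO2. Viability read by CellTiter-Glo at 72 h as blank-corrected survival rate vs control. Scored at 50 μM compound: survival 60-<90% +, >30-60% ++, ≤30% +++.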

BxPC-3 = test: Inhibition of tumor cell proliferation, CellTiter-Glo, BxPC-3
How it was run: as §1

A549 = test: Inhibition of tumor cell proliferation, CellTiter-Glo, A549
How it was run: as §1

SU-DHL6 = test: Inhibition of tumor cell proliferation, CellTiter-Glo, SU-DHL6
How it was run: as §1

K562 = test: Inhibition of tumor cell proliferation, CellTiter-Glo, K562
How it was run: as §1

RPMI-8226 = test: Inhibition of tumor cell proliferation, CellTiter-Glo, RPMI-8226
How it was run: as §1

Row | Compound | Inhibitory activity against proliferation (cell survival rate) MDA-MB-453 (MDA-MB-453) | Inhibitory activity against proliferation (cell survival rate) BxPC-3 (BxPC-3) | Inhibitory activity against proliferation (cell survival rate) A549 (A549) | Inhibitory activity against proliferation (cell survival rate) SU-DHL6 (SU-DHL6) | Inhibitory activity against proliferation (cell survival rate) K562 (K562) | Inhibitory activity against proliferation (cell survival rate) RPMI-8226 (RPMI-8226) | cell survival rate (%) at 50 µM (MDA-MB-453; Homo sapiens, MDA-MB-453, read-out: Inhibitory activity against proliferation (cell survival rate) MDA-MB-453) | cell survival rate (%) at 50 µM (BxPC-3; Homo sapiens, BXPC-3, read-out: Inhibitory activity against proliferation (cell survival rate) BxPC-3) | cell survival rate (% of control) at 50 µM (A549; Homo sapiens, A549, read-out: Inhibitory activity against proliferation (cell survival rate) A549) | cell survival rate (% of control) at 50 µM (SU-DHL6; Homo sapiens, SU-DHL-6, read-out: Inhibitory activity against proliferation (cell survival rate) SU-DHL6) | cell survival rate (%) at 50 µM (K562; Homo sapiens, K562, read-out: Inhibitory activity against proliferation (cell survival rate) K562) | cell survival rate (% of control) at 50 µM (RPMI-8226; Homo sapiens, RPMI-8226, read-out: Inhibitory activity against proliferation (cell survival rate) RPMI-8226)
1 | O=C1CCC(N2Cc3c(NC=C4C(=O)CC(c5c6ccccc6cc6ccccc56)CC4=O)cccc3C2=O)C(=O)N1 (stereo not drawn) [Compound 30] | +++ (survival rate (%)≤30) | + (60≤survival rate (%)<90) | +++ (survival rate (%)≤30) | +++ (survival rate (%)≤30) | +++ (survival rate (%)≤30) | +++ (survival rate (%)≤30) | – | – | – | – | – | –
2 | O=C1CCC(N2Cc3c(NC(=O)NCCNC=C4C(=O)CC(c5ccccc5)CC4=O)cccc3C2=O)C(=O)N1 (stereo not drawn) [Compound 77] | +++ (survival rate (%)≤30) | + (60≤survival rate (%)<90) | +++ (survival rate (%)≤30) | + (60≤survival rate (%)<90) | +++ (survival rate (%)≤30) | + (60≤survival rate (%)<90) | – | – | – | – | – | –
3 | O=C1CCC(N2Cc3c(NC=C4C(=O)CC(/C=C/c5ccccc5)CC4=O)cccc3C2=O)C(=O)N1 (stereo not drawn) [Compound 120] | ++ (30<survival rate (%)≤60) | + (60≤survival rate (%)<90) | + (60≤survival rate (%)<90) | ++ (30<survival rate (%)≤60) | ++ (30<survival rate (%)≤60) | ++ (30<survival rate (%)≤60) | – | – | – | – | – | –
4 | O=C1CC(c2ccccc2)CC(=O)C1=CNCCN1CCN(CCOC(=O)N2C(=O)CCC(N3C(=O)c4ccccc4C3=O)C2=O)CC1 (stereo not drawn) [Compound 103] | +++ (survival rate (%)≤30) | + (60≤survival rate (%)<90) | +++ (survival rate (%)≤30) | +++ (survival rate (%)≤30) | + (60≤survival rate (%)<90) | + (60≤survival rate (%)<90) | – | – | – | – | – | –
5 | O=C1CCC(N2Cc3c(NC(=O)c4cccc(NC=C5C(=O)CC(c6ccccc6)CC5=O)c4)cccc3C2=O)C(=O)N1 (stereo not drawn) [Compound 53] | ++ (30<survival rate (%)≤60) | + (60≤survival rate (%)<90) | +++ (survival rate (%)≤30) | +++ (survival rate (%)≤30) | +++ (survival rate (%)≤30) | +++ (survival rate (%)≤30) | – | – | – | – | – | –
6 | O=C1CCC(N2Cc3c(NC(=O)c4cccnc4NC=C4C(=O)CC(c5ccccc5)CC4=O)cccc3C2=O)C(=O)N1 (stereo not drawn) [Compound 67] | ++ (30<survival rate (%)≤60) | + (60≤survival rate (%)<90) | +++ (survival rate (%)≤30) | +++ (survival rate (%)≤30) | +++ (survival rate (%)≤30) | +++ (survival rate (%)≤30) | – | – | – | – | – | –
7 | Cc1cc(C(=O)Nc2cccc3c2CN(C2CCC(=O)NC2=O)C3=O)ccc1NC=C1C(=O)CC(c2ccccc2)CC1=O (stereo not drawn) [Compound 51] | + (60≤survival rate (%)<90) | + (60≤survival rate (%)<90) | + (60≤survival rate (%)<90) | + (60≤survival rate (%)<90) | + (60≤survival rate (%)<90) | +++ (survival rate (%)≤30) | – | – | – | – | – | –
8 | O=C1CCC(N2C(=O)c3cccc(NC(=O)c4ccc(CN5CCN(CCNC=C6C(=O)CC(c7ccccc7)CC6=O)CC5)cc4)c3C2=O)C(=O)N1 (stereo not drawn) [Compound 94] | +++ (survival rate (%)≤30) | + (60≤survival rate (%)<90) | +++ (survival rate (%)≤30) | +++ (survival rate (%)≤30) | +++ (survival rate (%)≤30) | +++ (survival rate (%)≤30) | – | – | – | – | – | –
9 | O=C1CCC(N2Cc3c(NC(=O)CCC(=O)OCCN4CCN(CCNC=C5C(=O)CC(c6ccccc6)CC5=O)CC4)cccc3C2=O)C(=O)N1 (stereo not drawn) [Compound 56] | +++ (survival rate (%)≤30) | + (60≤survival rate (%)<90) | +++ (survival rate (%)≤30) | +++ (survival rate (%)≤30) | + (60≤survival rate (%)<90) | + (60≤survival rate (%)<90) | – | – | – | – | – | –
10 | O=C1CCC(N2Cc3c(NC(=O)c4cnc(NC=C5C(=O)CC(c6ccccc6)CC5=O)s4)cccc3C2=O)C(=O)N1 (stereo not drawn) [Compound 62] | +++ (survival rate (%)≤30) | ++ (30<survival rate (%)≤60) | ++ (30<survival rate (%)≤60) | ++ (30<survival rate (%)≤60) | + (60≤survival rate (%)<90) | +++ (survival rate (%)≤30) | – | – | – | – | – | –
11 | O=C1CCC(N2Cc3c(NC=C4C(=O)CC(c5csc6ccccc56)CC4=O)cccc3C2=O)C(=O)N1 (stereo not drawn) [Compound 37] | +++ (survival rate (%)≤30) | + (60≤survival rate (%)<90) | + (60≤survival rate (%)<90) | +++ (survival rate (%)≤30) | + (60≤survival rate (%)<90) | + (60≤survival rate (%)<90) | – | – | – | – | – | –
12 | O=C1CCC(N2Cc3c(NC=C4C(=O)CC(c5ncnc6sccc56)CC4=O)cccc3C2=O)C(=O)N1 (stereo not drawn) [Compound 130] | +++ (survival rate (%)≤30) | + (60≤survival rate (%)<90) | +++ (survival rate (%)≤30) | +++ (survival rate (%)≤30) | ++ (30<survival rate (%)≤60) | ++ (30<survival rate (%)≤60) | – | – | – | – | – | –
13 | COc1ccc(C2CC(=O)C(=CNc3cccc4c3CN(C3CCC(=O)NC3=O)C4=O)C(=O)C2)cc1 (stereo not drawn) [Compound 32] | ++ (30<survival rate (%)≤60) | + (60≤survival rate (%)<90) | +++ (survival rate (%)≤30) | +++ (survival rate (%)≤30) | +++ (survival rate (%)≤30) | +++ (survival rate (%)≤30) | – | – | – | – | – | –
14 | O=C1CCC(N2C(=O)c3cccc(NC(=O)OCCN4CCN(CCNC=C5C(=O)CC(c6ccccc6)CC5=O)CC4)c3C2=O)C(=O)N1 (stereo not drawn) [Compound 80] | ++ (30<survival rate (%)≤60) | + (60≤survival rate (%)<90) | +++ (survival rate (%)≤30) | + (60≤survival rate (%)<90) | +++ (survival rate (%)≤30) | +++ (survival rate (%)≤30) | – | – | – | – | – | –
15 | O=C1CCC(N2Cc3c(N/C=C4\C(=O)Nc5c(ccc6ccccc56)C4=O)cccc3C2=O)C(=O)N1 (stereo not drawn) [Compound 138] | – | – | – | – | – | – | ≤ 30% | 60 to 90% | ≤ 30% | ≤ 30% | 30 to 60% | 30 to 60%
16 | O=C1CCC(N2Cc3c(NS(=O)(=O)N4CCN(CCNC=C5C(=O)CC(c6ccccc6)CC5=O)CC4)cccc3C2=O)C(=O)N1 (stereo not drawn) [Compound 72] | + (60≤survival rate (%)<90) | + (60≤survival rate (%)<90) | + (60≤survival rate (%)<90) | +++ (survival rate (%)≤30) | +++ (survival rate (%)≤30) | + (60≤survival rate (%)<90) | – | – | – | – | – | –
